The values that follow come from ChEMBL document CHEMBL1142047, “Identification of a 5-HT4 receptor antagonist clinical candidate through side-chain modification” (Bioorg Med Chem Lett, 2005).

Series [1] has as its target 5-hydroxytryptamine receptor 4 (Homo sapiens, UniProt Q13639). Description: Inhibitory constant for human cloned 5-HT4 receptor.
The nature of series [2]: Volume of distribution in dog (n=12; dose 0.25 mg/kg iv or 0.5 mg/kg po). As to conditions: in vivo.
Series [3] can be described thus: (§1) Bioavailability in dog (dose 0.25 mg/kg i.v. and 0.5 mg/kg p.o.). As to conditions: in vivo, po.
The nature of series [4]: Time taken for half of the concentration to degrade upon intravenous administration (n=12; dose 0.25 mg/kg iv). To be noted: dog, in vivo.
Series [5] in a line: in vivo. As to conditions: dog, plasma, iv, 0.25 mg/kg.
The nature of series [6]: Intrinsic clearance of compound in dog liver microsomes. Background: Liver microsomes are a subcellular fraction often used to study metabolism.
Series [7] in a line: Intrinsic clearance of compound in human liver microsomes.
Series [8] can be described thus: Percentage bioavailability (n=12; dose 0.25 mg/kg iv or 0.5 mg/kg po). The series is classed as ADME, organism-based, Canis lupus familiaris. To be noted: dog, in vivo.
Series [9] can be described thus: Volume of distribution in dog (n=7; dose 0.25 mg/kg iv or 0.5 mg/kg po). As to conditions: in vivo.
Series [10] is described as follows: Time taken for half of the concentration to degrade upon intravenous administration (n=7; dose 0.25 mg/kg iv). As to conditions: dog, in vivo.
Another series concerns the target Histamine H1 receptor (Rattus norvegicus, UniProt P31390).
Series [11] is described as follows: Plasma clearance in dog (n=8; dose 0.25 mg/kg iv or 0.5 mg/kg po). The series is classed as ADME, organism-based, Canis lupus familiaris.
Series [12] is described as follows: Volume of distribution in dog (n=8; dose 0.25 mg/kg iv or 0.5 mg/kg po). It counts as ADME, organism-based, Canis lupus familiaris. As to conditions: in vivo, read-out: Vz.
A short description of series [13]: as §1. It counts as ADME, organism-based, Canis lupus familiaris. As to conditions: in vivo, po.
Series [14] in a line: Time taken for half of the concentration to degrade upon intravenous administration (n=8; dose 0.25 mg/kg iv). The series is classed as ADME, organism-based, Canis lupus familiaris. Also noted: dose 0.25 mg/kg, route intravenous. As to conditions: dog, in vivo.
A short description of series [15]: Time taken for half of the concentration to degrade upon oral administration. To be noted: dog, in vivo. The series is classed as ADME, organism-based, Canis lupus familiaris.
Series [16] can be described thus: in vivo. As to conditions: dog, plasma, iv, 0.25 mg/kg. The source holds these as a separate data set.
A short description of series [17]: Time taken for half of the concentration to degrade upon oral administration (n=7; 0.5 mg/kg po). The series is classed as ADME, organism-based, Canis lupus familiaris. As to conditions: dog, in vivo. Also noted: dose 0.5 mg/kg, route oral.
The nature of series [18]: Bioavailability in rat. The series is classed as ADME, organism-based. As to conditions: in vivo.
Series [19] in a line: Half-life in human. The series is classed as ADME.
Series [20] can be described thus: in vivo. As to conditions: rat.

Sequence of 5-hydroxytryptamine receptor 4 (Q13639 whole entry): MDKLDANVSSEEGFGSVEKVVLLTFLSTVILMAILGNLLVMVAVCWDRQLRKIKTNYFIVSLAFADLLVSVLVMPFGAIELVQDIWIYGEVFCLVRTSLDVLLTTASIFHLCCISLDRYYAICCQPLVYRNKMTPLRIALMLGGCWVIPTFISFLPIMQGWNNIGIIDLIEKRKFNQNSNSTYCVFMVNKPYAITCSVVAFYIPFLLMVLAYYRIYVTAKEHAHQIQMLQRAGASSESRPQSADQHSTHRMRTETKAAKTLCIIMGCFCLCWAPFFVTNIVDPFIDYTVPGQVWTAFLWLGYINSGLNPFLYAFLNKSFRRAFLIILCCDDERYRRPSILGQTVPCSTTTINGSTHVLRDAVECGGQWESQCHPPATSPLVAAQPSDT
Sequence of Histamine H1 receptor (P31390 whole entry): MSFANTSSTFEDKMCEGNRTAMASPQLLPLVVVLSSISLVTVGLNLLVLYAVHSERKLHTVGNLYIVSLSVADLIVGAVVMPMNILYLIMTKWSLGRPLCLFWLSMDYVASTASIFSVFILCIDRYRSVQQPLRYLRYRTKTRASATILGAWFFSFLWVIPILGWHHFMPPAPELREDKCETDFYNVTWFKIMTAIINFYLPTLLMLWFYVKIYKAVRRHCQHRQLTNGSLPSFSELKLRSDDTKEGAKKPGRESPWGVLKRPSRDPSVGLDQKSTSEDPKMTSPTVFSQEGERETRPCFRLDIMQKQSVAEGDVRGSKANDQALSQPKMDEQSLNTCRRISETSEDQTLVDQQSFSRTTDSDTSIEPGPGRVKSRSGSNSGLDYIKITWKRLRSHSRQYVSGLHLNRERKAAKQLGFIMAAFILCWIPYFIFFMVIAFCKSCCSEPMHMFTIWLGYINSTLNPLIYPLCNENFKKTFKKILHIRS

Consider `O=C(NCC1CCN(CCCS(=O)(=O)N2CCN(S(=O)(=O)N3CCCC3)CC2)CC1)c1cccc2c1OCCO2`, for which the Ki (in general, the equilibrium dissociation constant of an inhibitor or competing ligand from its target) in [1] was 0.0794 nM.

In series [1], `CC(C)S(=O)(=O)N1CCN(S(=O)(=O)CCCN2CCC(CNC(=O)c3cccc4c3OCCO4)CC2)CC1` had an inhibitory constant (Ki) of 0.126 nM.

Turning to `O=C(NCC1CCN(CCCS(=O)(=O)N2CCOCC2)CC1)c1cccc2c1OCCO2`, in series [1], the Ki is 0.398 nM. Besides, the Vd in series [2] came to 1.6 L/kg. For the same molecule, in series [3], the bioavailability (in general, the share of a dose that reaches the circulation, judged against a reference dose that is usually intravenous) came to 76%. Besides, the half-life (as a rule, how long it takes for the measured level to halve) in series [4] was 1 h. Further, the clearance in “in vivo [5]” worked out at 7 mL/min/kg.

The molecule `CCCCN1CCC(CNC(=O)c2c3n(c4ccccc24)CCCO3)CC1` [PIBOSEROD] showed a Ki in series [1] of 0.251 nM. This molecule also registered a Vd in [2] of 5 L/kg. The results for the intrinsic metabolic clearance (microsomal CLint) in series [6] and in [7] were 4 µL/min/mg and 5 µL/min/mg, respectively. The bioavailability in series [8] turned out to be 71%. The same molecule showed a half-life in series [4] of 7.1 h. Further, in the series “in vivo [5]”, the clearance amounted to 8 mL/min/kg.

Molecule `CCN1CCN(S(=O)(=O)CCCN2CCC(CNC(=O)c3cccc4c3OCCO4)CC2)CC1` showed an inhibition constant (Ki) in series [1] of 0.0501 nM. The molecule further displayed a Vd in series [9] of 3.6 L/kg. Further, the bioavailability in series [3] is 94%. Further, the half-life in series [10] was 3.1 h.

Regarding `O=C(NCC1CCN(CCCS(=O)(=O)N2CCN(Cc3cccnc3)CC2)CC1)c1cccc2c1OCCO2`, affinity in series [1] was put at a Ki of 0.158 nM.

Consider `CN1CCN(S(=O)(=O)CCCN2CCC(CNC(=O)c3cccc4c3OCCO4)CC2)CC1`, for which the affinity in [1] corresponds to a Ki of 0.251 nM. At Histamine H1 receptor, inhibition was half-maximal at 100 nM (IC50).

With `O=C(NCC1CCN(CCCS(=O)(=O)N2CCNCC2)CC1)c1cccc2c1OCCO2`, in series [11], the clearance amounted to 11 mL/min/kg. In series [1], this molecule had a Ki of 0.158 nM. Besides, the Vd in series [12] came to 34 L/kg. The bioavailability in series [13] was found to be 33%. The half-life in series [14] was 37 h.

`CC(=O)N1CCN(S(=O)(=O)CCCN2CCC(CNC(=O)c3cccc4c3OCCO4)CC2)CC1`: in series [1], the Ki was 0.126 nM. Further, the half-life is 4.6 h in series [15] and 1.3 h in series [10]. In addition, the Vd in series [9] was 0.7 L/kg. In series [3], this molecule came in with a bioavailability of 51%. The same molecule returned a clearance in “in vivo [16]” of 6 mL/min/kg.

With `CC(C)N1CCN(S(=O)(=O)CCCN2CCC(CNC(=O)c3cccc4c3OCCO4)CC2)CC1`, the affinity in [1], expressed as Ki, was 0.0316 nM. Moreover, the Vd in [9] is 3.6 L/kg. In series [3], this molecule registered a bioavailability of 72%. Besides, the half-life in series [10] was 3 h. For the same molecule, the clearance in the series “in vivo [16]” was found to be 14 mL/min/kg.

For `CCCN1CCN(S(=O)(=O)CCCN2CCC(CNC(=O)c3cccc4c3OCCO4)CC2)CC1`, the Ki in series [1] was 0.0316 nM.

Consider `O=C(NCC1CCN(CCCS(=O)(=O)N2CCN(S(=O)(=O)c3ccc(F)cc3)CC2)CC1)c1cccc2c1OCCO2`, for which the Ki in series [1] is 0.0316 nM.

Turning to `O=C(NCC1CCN(CCCS(=O)(=O)N2CCN(C3CCCC3)CC2)CC1)c1cccc2c1OCCO2`, the clearance in [11] came to 37 mL/min/kg. The molecule further had a Ki in [1] of 0.0158 nM. In addition, the Vd in [12] came out at 9.3 L/kg. This molecule returned a bioavailability in series [13] of 42%. In series [14], this molecule gave a half-life of 2.9 h.

In [1], `CS(=O)(=O)N1CCN(S(=O)(=O)CCCN2CCC(CNC(=O)c3cccc4c3OCCO4)CC2)CC1` had a Ki of 0.316 nM. The same molecule displayed a Vd in series [9] of 0.3 L/kg. Also, the half-life is 3.6 h in series [17] and 1.2 h in series [10]. Besides, in series [3], the bioavailability came to 90%.

In series [1], `O=C(NCC1CCN(CCCS(=O)(=O)N2CCCCC2)CC1)c1cccc2c1OCCO2` showed an inhibitory constant (Ki) of 0.2 nM.

Regarding `CCCC1CCN(S(=O)(=O)CCCN2CCC(CNC(=O)c3cccc4c3OCCO4)CC2)CC1`, in series [1], the inhibition constant Ki was 0.0631 nM. In addition, in series [9], the Vd worked out at 1.4 L/kg. The bioavailability in [3] was determined as 15%. For the same molecule, in series [10], the half-life is 0.5 h. In the series “in vivo [16]”, the clearance was determined as 33 mL/min/kg.

In series [1], `O=C(NCC1CCN(CCCS(=O)(=O)N2CCN(c3ccc(F)cc3)CC2)CC1)c1cccc2c1OCCO2` had an inhibitory constant (Ki) of 0.0501 nM.

Consider `CCCCN1CCC(CNC(=O)c2cccc3c2OCCO3)CC1`, for which, in [1], the Ki is 0.794 nM. Further, the bioavailability in [18] was determined as 18%. Moreover, the half-life in [19] was 60 h; in “in vivo [20]”, < 1 h.

`O=C(NCC1CCN(CCCS(=O)(=O)N2CCN(C(=O)c3ccco3)CC2)CC1)c1cccc2c1OCCO2`: the clearance in series [11] turned out to be 2 mL/min/kg. Moreover, the inhibition constant Ki in series [1] was 0.1 nM. The Vd in series [12] was 0.2 L/kg. The molecule further had a bioavailability in [13] of 64%. In addition, the half-life in [14] is 1 h.

`CCCS(=O)(=O)N1CCN(S(=O)(=O)CCCN2CCC(CNC(=O)c3cccc4c3OCCO4)CC2)CC1` showed a Ki in series [1] of 0.1 nM. In series [9], the Vd amounted to 0.7 L/kg. In addition, the bioavailability in [3] is 82%. Moreover, the half-life in series [10] is 0.7 h. The same molecule registered a clearance in “in vivo [16]” of 12 mL/min/kg.

The molecule `CCC(C)N1CCN(S(=O)(=O)CCCN2CCC(CNC(=O)c3cccc4c3OCCO4)CC2)CC1` (configuration not stated) had a Ki in series [1] of 0.0251 nM.

As for `CC1(C)CCN(S(=O)(=O)CCCN2CCC(CNC(=O)c3cccc4c3OCCO4)CC2)CC1`, affinity in [1] was put at a Ki of 0.126 nM. The molecule also had a Vd in series [9] of 1.5 L/kg. Also, the bioavailability in series [3] was found to be 100%. Also, the half-life in series [10] is 0.7 h. Moreover, the clearance in “in vivo [16]” was determined as 27 mL/min/kg.

Molecule `O=C(NCC1CCN(CCCS(=O)(=O)N2CCC3(CCCC3)CC2)CC1)c1cccc2c1OCCO2` showed a Ki in series [1] of 0.0251 nM.

As for `O=C(NCC1CCN(CCCS(=O)(=O)N2CCN(c3ncccn3)CC2)CC1)c1cccc2c1OCCO2`, the Ki in series [1] was 0.251 nM. The molecule further displayed a Vd in series [9] of 0.3 L/kg. In series [3], this molecule gave a bioavailability of 65%. In addition, in series [10], the half-life is 0.7 h. In addition, the clearance in the series “in vivo [16]” worked out at 5 mL/min/kg.
